One test concerns the target carbonic anhydrase II (Homo sapiens (Human), UniProt P00918). Description: Carbonic anhydrase II enzyme activity inhibition (4-NPA esterase activity). Conditions: 4-nitrophenyl acetate esterase activity, absorbance at 405 nm. The test is classed as biochemical.
For test [1], the target named is NAE (heterodimer of APPBP1 and UBA3) (Homo sapiens (Human), UniProt Q8TBC4). Description: Nedd8 conjugation inhibitory activity (AlphaScreen assay). The test is classed as biochemical. Conditions: purified NAE, GST-UBC12, Biotin-Nedd8, ATP. For orientation: In Alpha technology, singlet oxygen from a donor bead excites a nearby acceptor bead.

Each structure is given as a SMILES string.

NAE (heterodimer of APPBP1 and UBA3), sequence (Q8TBC4 whole entry): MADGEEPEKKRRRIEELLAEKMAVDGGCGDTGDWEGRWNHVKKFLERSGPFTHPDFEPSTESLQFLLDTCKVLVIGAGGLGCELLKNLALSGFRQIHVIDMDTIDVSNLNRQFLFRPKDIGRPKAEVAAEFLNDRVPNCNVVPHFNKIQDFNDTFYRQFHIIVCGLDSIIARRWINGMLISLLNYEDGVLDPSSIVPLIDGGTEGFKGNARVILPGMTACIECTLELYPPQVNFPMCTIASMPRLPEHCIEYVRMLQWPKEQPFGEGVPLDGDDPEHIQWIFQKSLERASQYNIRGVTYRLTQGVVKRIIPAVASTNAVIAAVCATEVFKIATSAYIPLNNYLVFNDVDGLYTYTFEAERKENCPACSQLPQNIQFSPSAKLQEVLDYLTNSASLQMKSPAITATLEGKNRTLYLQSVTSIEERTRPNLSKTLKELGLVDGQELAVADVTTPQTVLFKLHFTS
NAE (heterodimer of APPBP1 and UBA3), sequence (Q13564 whole entry partner): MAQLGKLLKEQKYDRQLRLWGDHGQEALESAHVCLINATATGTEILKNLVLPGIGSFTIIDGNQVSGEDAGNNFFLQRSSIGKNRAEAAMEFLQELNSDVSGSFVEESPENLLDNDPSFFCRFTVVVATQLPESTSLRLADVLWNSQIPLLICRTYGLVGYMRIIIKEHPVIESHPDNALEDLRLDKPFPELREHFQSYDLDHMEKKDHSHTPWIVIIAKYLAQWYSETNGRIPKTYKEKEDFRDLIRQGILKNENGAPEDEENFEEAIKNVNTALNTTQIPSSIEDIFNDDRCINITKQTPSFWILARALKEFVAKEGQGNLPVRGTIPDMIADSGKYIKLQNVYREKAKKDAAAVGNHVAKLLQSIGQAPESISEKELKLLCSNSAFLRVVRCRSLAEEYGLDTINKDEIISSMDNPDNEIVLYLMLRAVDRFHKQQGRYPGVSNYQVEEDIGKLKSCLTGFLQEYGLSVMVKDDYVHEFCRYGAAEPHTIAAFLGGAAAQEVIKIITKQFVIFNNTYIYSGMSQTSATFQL

The IC50 is the point on the concentration scale where inhibition reaches its midpoint. Turning to `Cc1ccccc1-c1nc(-c2cn([C@@H]3O[C@H](CNS(N)(=O)=O)[C@@H](O)[C@H]3O)c3ncnc(N)c23)cs1` [Example 2, 4-[4-Amino-7-[(2R,3R,4S,5R)-3,4-dihydroxy-5-[(sulfamoylamino)methyl]tetrahydrofuran-2-yl]pyrrolo[2,3-d]pyrimidin-5-yl]-2-(o-tolyl)thiazole], the half-maximal inhibitory concentration (IC50) is greater than 1 µM on carbonic anhydrase II and 0.0071 µM in test [1].
For the molecule `Nc1ncnc2c1c(C#Cc1ccc(OCc3ccccc3)cc1)cn2[C@@H]1O[C@H](CNS(N)(=O)=O)[C@@H](O)[C@H]1O` [Example 3, 4-Amino-5-[2-(4-benzyloxyphenyl)ethynyl]-7-[(2R,3R,4S,5R)-3,4-dihydroxy-5-[(sulfamoylamino)methyl]tetrahydrofuran-2-yl]pyrrolo[2,3-d]pyrimidine], the IC50 at carbonic anhydrase II is greater than 1 µM.
On the same count and under the same terms, the figure for `Nc1ncnc2c1c(C#Cc1cccc3ccccc13)cn2[C@@H]1O[C@H](CNS(N)(=O)=O)[C@@H](O)[C@H]1O` [Example 6, 4-Amino-7-[(2R,3R,4S,5R)-3,4-dihydroxy-5-[(sulfamoylamino)methyl]tetrahydrofuran-2-yl]-5-[2-(1-naphthyl)ethynyl]pyrrolo[2,3-d]pyrimidine] is greater than 1 µM.
Consider `Nc1ncnc2c1c(C#CC1(c3ccccc3)CC1)cn2[C@@H]1O[C@H](CNS(N)(=O)=O)[C@@H](O)[C@H]1O` [Example 10, 4-Amino-7-[(2R,3R,4S,5R)-3,4-dihydroxy-5-[(sulfamoylamino)methyl]tetrahydrofuran-2-yl]-5-[2-(1-phenylcyclopropyl)ethynyl]pyrrolo[2,3-d]pyrimidine], for which the IC50 on carbonic anhydrase II was greater than 1 µM; in test [1] it was 0.024 µM.
Molecule `Nc1ncnc2c1c(-c1coc(-c3ccccc3)n1)cn2[C@@H]1O[C@H](CNS(N)(=O)=O)[C@@H](O)[C@H]1O` [Example 12, 4-[4-Amino-7-[(2R,3R,4S,5R)-3,4-dihydroxy-5-[(sulfamoylamino)methyl]tetrahydrofuran-2-yl]pyrrolo[2,3-d]pyrimidin-5-yl]-2-phenyl-oxazol] came in with an IC50 at carbonic anhydrase II greater than 1 µM.
In turn, `Nc1ncnc2c1c(C#Cc1ccccc1OC(F)(F)F)cn2[C@@H]1O[C@H](CNS(N)(=O)=O)[C@@H](O)[C@H]1O` [Example 14, 4-Amino-7-[(2R,3R,4S,5R)-3,4-dihydroxy-5-[(sulfamoylamino)methyl]tetrahydrofuran-2-yl]-5-[2-[2-(trifluoromethoxy)phenyl]ethynyl]pyrrolo[2,3-d]pyrimidine] yielded an IC50 on carbonic anhydrase II greater than 1 µM.
Regarding `CNc1cc(F)c(C#Cc2cn([C@@H]3O[C@H](CNS(N)(=O)=O)[C@@H](O)[C@H]3O)c3ncnc(N)c23)c(F)c1` [Example 25, 4-Amino-5-[2-[2,6-difluoro-4-(methylamino)phenyl]ethynyl]-7-[(2R,3R,4S,5R)-3,4-dihydroxy-5-[(sulfamoylamino)methyl]tetrahydrofuran-2-yl]pyrrolo[2,3-d]pyrimidine], the values for the IC50 (against carbonic anhydrase II; in test [1]) were greater than 1 µM and 0.0048 µM, respectively.
On the same counts, the results for `Nc1ncnc2c1c(C#Cc1c(F)cc(N3CC[C@@H](F)C3)cc1F)cn2[C@@H]1O[C@H](CNS(N)(=O)=O)[C@@H](O)[C@H]1O` [Example 29, 4-Amino-5-[2-[2,6-difluoro-4-[(3R)-3-fluoropyrrolidin-1-yl]phenyl]ethynyl]-7-[(2R,3R,4S,5R)-3,4-dihydroxy-5-[(sulfamoylamino)methyl]tetrahydrofuran-2-yl]pyrrolo[2,3-d]pyrimidine] are greater than 1 µM and 0.0071 µM.
The molecule `Nc1ncnc2c1c(C#CCc1ccccc1F)cn2[C@@H]1O[C@H](CNS(N)(=O)=O)[C@@H](O)[C@H]1O` [Example 36, 4-Amino-7-[(2R,3R,4S,5R)-3,4-dihydroxy-5-[(sulfamoylamino)methyl]tetrahydrofuran-2-yl]-5-[3-(2-fluorophenyl)prop-1-ynyl]pyrrolo[2,3-d]pyrimidine] had an IC50 at carbonic anhydrase II greater than 1 µM.
As for `Nc1ncnc2c1c(C#Cc1c(F)cc(N3CC(O)C3)cc1F)cn2[C@@H]1O[C@H](CNS(N)(=O)=O)[C@@H](O)[C@H]1O` [Example 39, 4-Amino-5-[2-[2,6-difluoro-4-(3-hydroxyazetidin-1-yl)phenyl]ethynyl]-7-[(2R,3R,4S,5R)-3,4-dihydroxy-5-[(sulfamoylamino)methyl]tetrahydrofuran-2-yl]pyrrolo[2,3-d]pyrimidine], the IC50 against carbonic anhydrase II is greater than 1 µM.
As to `Nc1ncnc2c1c(C#Cc1c(F)cc(N3CCC3)cc1F)cn2[C@@H]1O[C@H](CNS(N)(=O)=O)[C@@H](O)[C@H]1O` [Example 43, 4-amino-5-[2-[4-(azetidin-1-yl)-2,6-difluoro-phenyl]ethynyl]-7-[(2R,3R,4S,5R)-3,4-dihydroxy-5-[(sulfamoylamino)methyl]tetrahydrofuran-2-yl]pyrrolo[2,3-d]pyrimidine], the results for the IC50 (at carbonic anhydrase II; in test [1]) were greater than 1 µM and 0.0076 µM, respectively.
On the same counts, the results for `Nc1ncnc2c1c(C#Cc1ccccc1F)cn2[C@@H]1O[C@H](CNS(N)(=O)=O)[C@@H](O)[C@H]1O` [Example 46, 4-Amino-7-[(2R,3R,4S,5R)-3,4-dihydroxy-5-[(sulfamoylamino)methyl]tetrahydrofuran-2-yl]-5-[2-(2-fluorophenyl)ethynyl]pyrrolo[2,3-d]pyrimidine] are greater than 1 µM and 0.013 µM.
The like results for `COc1ccccc1C#Cc1cn([C@@H]2O[C@H](CNS(N)(=O)=O)[C@@H](O)[C@H]2O)c2ncnc(N)c12` [Example 47, 4-Amino-7-[(2R,3R,4S,5R)-3,4-dihydroxy-5-[(sulfamoylamino)methyl]tetrahydrofuran-2-yl]-5-[2-(2-methoxyphenyl)ethynyl]pyrrolo[2,3-d]pyrimidine] were, in that order, greater than 1 µM and 0.0093 µM.
Molecule `Nc1ncnc2c1c(C#CCC1CCCCC1)cn2[C@@H]1O[C@H](CNS(N)(=O)=O)[C@@H](O)[C@H]1O` [Example 50, 4-Amino-5-(3-cyclohexylprop-1-ynyl)-7-[(2R,3R,4S,5R)-3,4-dihydroxy-5-[(sulfamoylamino)methyl]tetrahydrofuran-2-yl]pyrrolo[2,3-d]pyrimidine] yielded a half-inhibitory concentration (IC50) at carbonic anhydrase II greater than 1 µM.
As to `Nc1ncnc2c1c(C#Cc1ccc(OCc3ccccc3)cn1)cn2[C@@H]1O[C@H](CNS(N)(=O)=O)[C@@H](O)[C@H]1O` [Example 52, 4-Amino-5-[2-(5-benzyloxy-2-pyridyl)ethynyl]-7-[(2R,3R,4S,5R)-3,4-dihydroxy-5-[(sulfamoylamino)methyl]tetrahydrofuran-2-yl]pyrrolo[2,3-d]pyrimidine], the IC50 on carbonic anhydrase II was greater than 1 µM; in test [1], 0.008 µM.
`Nc1ncnc2c1c(C#Cc1cccc3c1S(=O)(=O)CCC3)cn2[C@@H]1C[C@H](CNS(N)(=O)=O)[C@@H](O)[C@H]1O` [Example 123, 4-Amino-7-[(1R,2S,3R,4R)-2,3-dihydroxy-4-[(sulfamoylamino)methyl]cyclopentyl]-5-[2-(1,1-dioxo-3,4-dihydro-2H-thiochromen-8-yl)ethynyl]pyrrolo[2,3-d]pyrimidine] gave a 50% inhibitory concentration (IC50) in test [1] of 0.0091 µM. This counts as single-digit nanomolar.
In test [1], `CCOc1cccc(F)c1C#Cc1cn([C@H]2C[C@H](O)[C@@H](CNS(N)(=O)=O)O2)c2ncnc(N)c12` [Example 127, 4-Amino-5-[2-(2-ethoxy-6-fluoro-phenyl)ethynyl]-7-[(2R,4S,5R)-4-hydroxy-5-[(sulfamoylamino)methyl]tetrahydrofuran-2-yl]pyrrolo[2,3-d]pyrimidine] displayed a concentration for half-maximal inhibition (IC50) of 0.019 µM.
Molecule `CCOc1cccc(F)c1C#Cc1cn([C@@H]2C=C(CNS(N)(=O)=O)[C@@H](O)[C@H]2O)c2ncnc(N)c12` [Example 129, 4-Amino-7-[(1R,4R,5S)-4,5-dihydroxy-3-[(sulfamoylamino)methyl]cyclopent-2-en-1-yl]-5-[2-(2-ethoxy-6-fluoro-phenyl)ethynyl]pyrrolo[2,3-d]pyrimidine] displayed an IC50 at carbonic anhydrase II greater than 1 µM.
In test [1], `CSc1cccc(F)c1C#Cc1cn([C@@H]2C=C(CNS(N)(=O)=O)[C@@H](O)[C@H]2O)c2ncnc(N)c12` [Example 130, 4-Amino-7-[(1R,4R,5S)-4,5-dihydroxy-3-[(sulfamoylamino)methyl]cyclopent-2-en-1-yl]-5-[2-(2-fluoro-6-methylsulfanyl-phenyl)ethynyl]pyrrolo[2,3-d]pyrimidine] gave an IC50 of 0.004 µM.
As to `Nc1ncnc2c1c(C#Cc1ccccc1)cn2[C@H]1C[C@H](O)[C@@H](COS(N)(=O)=O)O1` [Example 134, [(2R,3S,5R)-5-[4-Amino-5-(2-phenylethynyl)pyrrolo[2,3-d]pyrimidin-7-yl]-3-hydroxy-tetrahydrofuran-2-yl]methyl sulfamate], in test [1], the IC50 came to 0.018 µM. Against the preceding molecule, the IC50 is about 4.5-fold higher.
Still for that read-out and setting: the figure for `Cc1ccc(Cn2cc(-c3cn([C@H]4C[C@H](O)[C@@H](COS(N)(=O)=O)O4)c4ncnc(N)c34)cn2)cc1C` [Example 137, [(2R,3S,5R)-5-[4-Amino-5-[1-[(3,4-dimethylphenyl)methyl]pyrazol-4-yl]pyrrolo[2,3-d]pyrimidin-7-yl]-3-hydroxy-tetrahydrofuran-2-yl]methyl sulfamate] is 0.019 µM.
Still for that read-out and setting: the figure for `Cc1ccc(Cn2cc(-c3cn([C@@H]4C[C@H](COS(N)(=O)=O)[C@@H](O)C4)c4ncnc(N)c34)cn2)cc1C` [Example 138, [(1R,2S,4R)-4-[4-Amino-5-[1-[(3,4-dimethylphenyl)methyl]pyrazol-4-yl]pyrrolo[2,3-d]pyrimidin-7-yl]-2-hydroxy-cyclopentyl]methyl sulfamate] is 0.0065 µM; for `Cc1ccccc1-c1nc(-c2cn([C@H]3C[C@H](O)[C@@H](COS(N)(=O)=O)O3)c3ncnc(N)c23)cs1` [Example 139, [(2R,3S,5R)-5-[4-Amino-5-[2-(o-tolyl)thiazol-4-yl]pyrrolo[2,3-d]pyrimidin-7-yl]-3-hydroxy-tetrahydrofuran-2-yl]methyl sulfamate] it is 0.017 µM; for `CCS(=O)(=O)c1cccc(F)c1C#Cc1cn([C@@H]2C[C@H](CNS(N)(=O)=O)[C@@H](O)[C@H]2O)c2ncnc(N)c12` [Example 142, 4-Amino-7-[(1R,2S,3R,4R)-2,3-dihydroxy-4-[(sulfamoylamino)methyl]cyclopentyl]-5-[2-(2-ethylsulfonyl-6-fluoro-phenyl)ethynyl]pyrrolo[2,3-d]pyrimidine] it is 0.009 µM.
